Tested on: murine middle cerebral artery occlusion-reperfusion (MCAO-RP) model of transient focal ischemia
Experiment: Middle cerebral artery occlusion-reperfusion (MCAO-RP), 90 min MCAO, misoprostol
Type: in vivo, mouse
Details: p<0.05
Method: Focal cerebral ischemia was induced by 90 minutes of reversible right middle cerebral artery occlusion (MCAO) under isofluorane anesthesia followed by 22.5 hours or 72 hours of reperfusion and terminal histopathology, as previously described (McCullough et al., 2004). […] Mice were given 3 subcutaneous injections of either vehicle (hydroxypropyl-methyl cellulose; HPMC) or 1 mg/kg misoprostol in HPMC (1:100 misoprostol:HPMC; Pfizer, Groton, Conn.) (Best et al., 1995) either at onset of MCAO or 2 hours after MCAO, followed by two subsequent doses 6 and 12 hours later. In the first experiment, misoprostol was given at onset of MCAO, with the two subsequent injections given at 6 hours and at 12 hours post MCAO, and brains were analyzed 22.5 hours later. In the second experiment, treatment with the initial dose of misoprostol was delayed two hours after the onset of MCAO, and two subsequent doses were then administered at 8 hours and 14 hours after MCAO and brains were analyzed at 22.5 hours later. In the third experiment, a delayed time point was tested, and misoprostol was given 2 hours after MCAO and again at 6 and 12 hours; brains were examined at 72 hours. […] A fifth cohort of EP3−/− and +/+ mice underwent treatment with either vehicle or misoprostol at MCAO, with subsequent administration of misoprostol or vehicle at 6 and 12 hours post MCAO and brain examination 22.5 hours later.

## CCCCC(C)(O)C/C=C/[C@H]1[C@H](O)CC(=O)[C@@H]1CCCCCCC(=O)OC (mixture of isomers) [misoprostol]
1 mg/kg s.c. 2 h after MCAO, again at 6 and 12 h, 72 h, comparison value 2.6+/−0.24
  Neurological scores: 1.0+/−0.22
1 mg/kg s.c. 2 h after MCAO, then at 8 and 14 h, 24 h, comparison value 2.6+/−0.3
  Neurological scores: 1.7+/−0.3
1 mg/kg s.c. at onset of 90 min MCAO, then at 6 and 12 h, 24 h, comparison value 2.4+/−0.2
  Neurological scores: 1.8+/−0.2

Reference: patent US8552059B2, “Treatment of ischemic episodes and cerebroprotection through misoprostol” (The Board of Trustees of the Leland Stanford Junior …, priority 2009, dated 2013)
